# Measured values as given in article PMC7419507, “In vitro Cas9-assisted editing of modular polyketide synthase genes to produce desired natural product derivatives” (Nature Communications, 2020).
# Where “and” joins values, the source holds several entries; their conditions need not be identical. Identical values can stand only once.
# How the values were obtained:
# [1] = test system: T lymphoma Jurkat cells; test: Cytotoxicity assay (CellTiter-Glo, 72 h), Jurkat; type: cell-based; details: raw data (replicates)
# How it was run: (§1)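 Cells were seeded at 1000 cells/well and allowed 4 h at 37 °C, 5% CO2 before 2-fold compound dilutions in DMSO were added (0.5% final DMSO). After 72 h exposure, viability was read by CellTiter-Glo luminescence.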
# [2] = Cytotoxicity assay (CellTiter-Glo, 72 h), Jurkat; type: cell-based; details: human, Jurkat cells (T lymphoma), raw data (replicates)
# How it was run: as §1
# [3] = Cytotoxicity assay (CellTiter-Glo, 72 h), SKOV-3; type: cell-based, human; details: human, raw replicate data, read-out: SKOV3 viability (%)
# How it was run: as §1
# [4] = test system: human ovarian adenocarcinoma SKOV-3 cells; test: Cytotoxicity assay (CellTiter-Glo, 72 h), SKOV-3; type: cell-based; details: raw replicate data
# How it was run: as §1
# [5] = test system: Jurkat, SKOV-3 and MESO-1 cells; test: Cytotoxicity assay, statements for all tested cell lines together; type: cell-based; details: Jurkat, SKOV-3 and MESO-1 cells, 72 h
# How it was run: as §1
# [6] = test system: malignant pleural mesothelioma MESO-1 cells; test: Cytotoxicity assay (CellTiter-Glo, 72 h), MESO-1; type: cell-based; details: raw replicate data
# How it was run: as §1
# [7] = Cytotoxicity assay (CellTiter-Glo, 72 h), MESO-1; type: cell-based; details: human, MESO-1 malignant pleural mesothelioma cells, raw replicate data, read-out: MESO1 viability (%)
# How it was run: as §1
smiles,measurement,setting,value
CO[C@H]1C[C@@H]2CC[C@@H](C)[C@@](O)(O2)C(=O)C(=O)N2CCCC[C@H]2C(=O)O[C@H]([C@H](C)C[C@@H]2CC[C@@H](O)[C@H](OC)C2)CC(=O)[C@H](C)/C=C(\C)[C@@H](O)CC[C@H](C)/C=C/C=C/C=C/1C [Compound 7],Jurkat viability (%),[1]; conc 9.53674e-5 uM,101.4% and 96.8%
same,Jurkat viability (%),[1]; conc 0.000190735 uM,92.3% and 102.8%
same,Jurkat viability (%),[1]; conc 0.00038147 uM,98.3% and 99.4%
same,Jurkat viability (%),[1]; conc 0.000762939 uM,96.8% and 109.7%
same,Jurkat viability (%),[1]; conc 0.00152588 uM,108.1% and 104.4%
same,Jurkat viability (%),[1]; conc 0.00305176 uM,100.3% and 100.8%
same,Jurkat viability (%),[1]; conc 0.00610352 uM,94.5% and 97.8%
same,Jurkat viability (%),[1]; conc 0.012207 uM,91.0% and 94.3%
same,Jurkat viability (%),[1]; conc 0.0244141 uM,98.4% and 90.4%
same,Jurkat viability (%),[1]; conc 0.0488281 uM,79.8% and 78.8%
same,Jurkat viability (%),[1]; conc 0.0976562 uM,64.4% and 67.9%
same,Jurkat viability (%),[1]; conc 0.195312 uM,41.4% and 44.6%
same,Jurkat viability (%),[1]; conc 0.390625 uM,37.3% and 37.7%
same,Jurkat viability (%),[1]; conc 0.78125 uM,29.3% and 29.8%
same,Jurkat viability (%),[1]; conc 1.5625 uM,28.3%
same,Jurkat viability (%),[1]; conc 3.125 uM,25.8% and 24.4%
same,Jurkat viability (%),[1]; conc 6.25 uM,23.0% and 23.1%
same,Jurkat viability (%),[1]; conc 12.5 uM,10.5% and 12.1%
same,Jurkat viability (%),[1]; conc 25 uM,0.565% and 1.0%
same,Jurkat viability (%),[1]; conc 50 uM,0.186% and 0.257%
same,"viability at 72 h, 9.53674e-05 uM",[2]; conc 9.53674e-5 uM,100%
same,"viability at 72 h, 0.000190735 uM",[2]; conc 0.000190735 uM,95.1%
same,"viability at 72 h, 0.00038147 uM",[2]; conc 0.00038147 uM,102%
same,"viability at 72 h, 0.000762939 uM",[2]; conc 0.000762939 uM,100%
same,"viability at 72 h, 0.00152588 uM",[2]; conc 0.00152588 uM,105%
same,"viability at 72 h, 0.00305176 uM",[2]; conc 0.00305176 uM,93.5%
same,"viability at 72 h, 0.00610352 uM",[2]; conc 0.00610352 uM,96.7%
same,"viability at 72 h, 0.012207 uM",[2]; conc 0.012207 uM,90.6%
same,"viability at 72 h, 0.0244141 uM",[2]; conc 0.0244141 uM,98.9%
same,"viability at 72 h, 0.0488281 uM",[2]; conc 0.0488281 uM,87%
same,"viability at 72 h, 0.0976562 uM",[2]; conc 0.0976562 uM,67%
same,"viability at 72 h, 0.195312 uM",[2]; conc 0.195312 uM,46.3%
same,"viability at 72 h, 0.390625 uM",[2]; conc 0.390625 uM,36%
same,"viability at 72 h, 0.78125 uM",[2]; conc 0.78125 uM,31%
same,"viability at 72 h, 1.5625 uM",[2]; conc 1.5625 uM,26.7%
same,"viability at 72 h, 3.125 uM",[2]; conc 3.125 uM,24.2%
same,"viability at 72 h, 6.25 uM",[2]; conc 6.25 uM,24.1%
same,"viability at 72 h, 12.5 uM",[2]; conc 12.5 uM,10.9%
same,"viability at 72 h, 25 uM",[2]; conc 25 uM,0.741%
same,"viability at 72 h, 50 uM",[2]; conc 50 uM,0.258%
same,"viability at 72 h, 9.53674e-05 uM","[3]; SKOV-3 cells (ovarian adenocarcinoma), conc 9.53674e-5 uM",101%
same,"viability at 72 h, 0.000190735 uM","[3]; SKOV-3 cells (ovarian adenocarcinoma), conc 0.000190735 uM",101%
same,"viability at 72 h, 0.00038147 uM","[3]; SKOV-3 cells (ovarian adenocarcinoma), conc 0.00038147 uM",98.2%
same,"viability at 72 h, 0.000762939 uM","[3]; SKOV-3 cells (ovarian adenocarcinoma), conc 0.000762939 uM",98.7%
same,"viability at 72 h, 0.00152588 uM","[3]; SKOV-3 cells (ovarian adenocarcinoma), conc 0.00152588 uM",101%
same,"viability at 72 h, 0.00305176 uM","[3]; SKOV-3 cells (ovarian adenocarcinoma), conc 0.00305176 uM",94.8%
same,"viability at 72 h, 0.00610352 uM","[3]; SKOV-3 cells (ovarian adenocarcinoma), conc 0.00610352 uM",98.4%
same,"viability at 72 h, 0.012207 uM","[3]; SKOV-3 cells (ovarian adenocarcinoma), conc 0.012207 uM",96.9%
same,"viability at 72 h, 0.0244141 uM","[3]; SKOV-3 cells (ovarian adenocarcinoma), conc 0.0244141 uM",94.4%
same,"viability at 72 h, 0.0488281 uM","[3]; SKOV-3 cells (ovarian adenocarcinoma), conc 0.0488281 uM",92.3%
same,"viability at 72 h, 0.0976562 uM","[3]; SKOV-3 cells (ovarian adenocarcinoma), conc 0.0976562 uM",88.5%
same,"viability at 72 h, 0.195312 uM","[3]; SKOV-3 cells (ovarian adenocarcinoma), conc 0.195312 uM",64.9%
same,"viability at 72 h, 0.390625 uM","[3]; SKOV-3 cells (ovarian adenocarcinoma), conc 0.390625 uM",75%
same,"viability at 72 h, 12.5 uM","[3]; SKOV-3 cells (ovarian adenocarcinoma), conc 12.5 uM",56.1%
same,"viability at 72 h, 25 uM","[3]; SKOV-3 cells (ovarian adenocarcinoma), conc 25 uM",30.8%
same,"viability at 72 h, 50 uM","[3]; SKOV-3 cells (ovarian adenocarcinoma), conc 50 uM",6.6%
same,"viability at 72 h, 0.78125 uM","[3]; SKOV-3 ovarian adenocarcinoma cells, conc 0.78125 uM",59.1%
same,"viability at 72 h, 1.5625 uM","[3]; SKOV-3 ovarian adenocarcinoma cells, conc 1.5625 uM",62%
same,"viability at 72 h, 3.125 uM","[3]; SKOV-3 ovarian adenocarcinoma cells, conc 3.125 uM",59.9%
same,"viability at 72 h, 6.25 uM","[3]; SKOV-3 ovarian adenocarcinoma cells, conc 6.25 uM",61.9%
same,SKOV3 viability (%),[4]; conc 9.53674e-5 uM,108.9% and 101.6%
same,SKOV3 viability (%),[4]; conc 0.000190735 uM,101.5% and 97.4%
same,SKOV3 viability (%),[4]; conc 0.00038147 uM,103.2% and 103.5%
same,SKOV3 viability (%),[4]; conc 0.000762939 uM,102.5%
same,SKOV3 viability (%),[4]; conc 0.00152588 uM,105.1% and 100.3%
same,SKOV3 viability (%),[4]; conc 0.00305176 uM,94.9% and 97.9%
same,SKOV3 viability (%),[4]; conc 0.00610352 uM,104.9% and 101.4%
same,SKOV3 viability (%),[4]; conc 0.012207 uM,92.0% and 94.0%
same,SKOV3 viability (%),[4]; conc 0.0244141 uM,99.4% and 102.3%
same,SKOV3 viability (%),[4]; conc 0.0488281 uM,100.8% and 88.2%
same,SKOV3 viability (%),[4]; conc 0.0976562 uM,88.7% and 90.6%
same,SKOV3 viability (%),[4]; conc 0.195312 uM,66.8% and 68.9%
same,SKOV3 viability (%),[4]; conc 0.390625 uM,68.2% and 69.5%
same,SKOV3 viability (%),[4]; conc 0.78125 uM,60.2% and 57.4%
same,SKOV3 viability (%),[4]; conc 1.5625 uM,64.2% and 69.2%
same,SKOV3 viability (%),[4]; conc 3.125 uM,60.4% and 56.6%
same,SKOV3 viability (%),[4]; conc 6.25 uM,60.8% and 65.6%
same,SKOV3 viability (%),[4]; conc 12.5 uM,53.3% and 53.4%
same,SKOV3 viability (%),[4]; conc 25 uM,31.4% and 36.3%
same,SKOV3 viability (%),[4]; conc 50 uM,5.9% and 7.4%
same,"Effect on cell viability, in words",[5],slightly suppressed the cell viabilities
same,MESO1 viability (%),[6]; conc 9.53674e-5 uM,102.2% and 99.0%
same,MESO1 viability (%),[6]; conc 0.000190735 uM,96.1%
same,MESO1 viability (%),[6]; conc 0.00038147 uM,98.4% and 104.2%
same,MESO1 viability (%),[6]; conc 0.000762939 uM,97.5%
same,MESO1 viability (%),[6]; conc 0.00152588 uM,94.3% and 98.4%
same,MESO1 viability (%),[6]; conc 0.00305176 uM,93.1% and 92.8%
same,MESO1 viability (%),[6]; conc 0.00610352 uM,98.2%
same,MESO1 viability (%),[6]; conc 0.012207 uM,92.2% and 89.5%
same,MESO1 viability (%),[6]; conc 0.0244141 uM,87.8%
same,MESO1 viability (%),[6]; conc 0.0488281 uM,86.4% and 84.2%
same,MESO1 viability (%),[6]; conc 0.0976562 uM,76.6% and 76.8%
same,MESO1 viability (%),[6]; conc 0.195312 uM,70.4% and 63.5%
same,MESO1 viability (%),[6]; conc 0.390625 uM,69.2% and 71.3%
same,MESO1 viability (%),[6]; conc 0.78125 uM,64.7% and 62.9%
same,MESO1 viability (%),[6]; conc 1.5625 uM,70.0% and 72.7%
same,MESO1 viability (%),[6]; conc 3.125 uM,62.1% and 64.7%
same,MESO1 viability (%),[6]; conc 6.25 uM,67.5% and 72.2%
same,MESO1 viability (%),[6]; conc 12.5 uM,60.9% and 63.2%
same,MESO1 viability (%),[6]; conc 25 uM,63.3% and 65.2%
same,MESO1 viability (%),[6]; conc 50 uM,30.2% and 20.1%
same,"viability at 72 h, 9.53674e-05 uM",[7]; conc 9.53674e-5 uM,96.8%
same,"viability at 72 h, 0.000190735 uM",[7]; conc 0.000190735 uM,92.7%
same,"viability at 72 h, 0.00038147 uM",[7]; conc 0.00038147 uM,98.8%
same,"viability at 72 h, 0.000762939 uM",[7]; conc 0.000762939 uM,94.4%
same,"viability at 72 h, 0.00152588 uM",[7]; conc 0.00152588 uM,97.9%
same,"viability at 72 h, 0.00305176 uM",[7]; conc 0.00305176 uM,90.7%
same,"viability at 72 h, 0.00610352 uM",[7]; conc 0.00610352 uM,100%
same,"viability at 72 h, 0.012207 uM",[7]; conc 0.012207 uM,86%
same,"viability at 72 h, 0.0244141 uM",[7]; conc 0.0244141 uM,90.4%
same,"viability at 72 h, 0.0488281 uM",[7]; conc 0.0488281 uM,80.8%
same,"viability at 72 h, 0.0976562 uM",[7]; conc 0.0976562 uM,78.6%
same,"viability at 72 h, 0.195312 uM",[7]; conc 0.195312 uM,68.6%
same,"viability at 72 h, 0.390625 uM",[7]; conc 0.390625 uM,71.6%
same,"viability at 72 h, 0.78125 uM",[7]; conc 0.78125 uM,67.7%
same,"viability at 72 h, 1.5625 uM",[7]; conc 1.5625 uM,70.1%
same,"viability at 72 h, 3.125 uM",[7]; conc 3.125 uM,60.8%
same,"viability at 72 h, 6.25 uM",[7]; conc 6.25 uM,67.3%
same,"viability at 72 h, 12.5 uM",[7]; conc 12.5 uM,66.3%
same,"viability at 72 h, 25 uM",[7]; conc 25 uM,64.4%
same,"viability at 72 h, 50 uM",[7]; conc 50 uM,23.2%
